Data set [1] in a line: Acute toxicity (LD50) in mice, intravenous (Experimental Example 2). The note with it: mouse, in vivo; ICR male mice, intravenous (tail), two weeks observation; estimated; read-out: 50% lethal dose (LD50). As to the method: Each of the compounds was administered intravenously to the tail of each mouse in a customary manner in a dose of 500 mg/kg and 1000 mg/kg, and over two weeks from then, the states of the mice were observed. It was consequently estimated that the LD50 values of each of these compounds was at least 1000 mg/kg.

Data set [2] is described as follows: Blood level in rats after intramuscular administration (Experimental Example 1, Table 3). It counts as in vivo. The note with it: rat, im, 20 mg/kg i.m., serum, read-out: Blood level after administration (average value ± standard deviation); for concentration at 0.25 h: 15 minutes; for concentration at 0.5 h: 30 minutes; for concentration at 1 h: 60 minutes; for concentration at 2 h: 120 minutes. As to the method: The compounds of this invention prepared in Synthesis Examples 1 and 2 were each administered intramuscularly to rats, and the concentrations of the compounds in the blood were determined.
Each of the test compounds was intramuscularly injected into the femoral part of rats in a customary manner in a dose of 20 mg/kg for each rat. The blood was drawn by incising the cervical artery and vein at the end of 15 minutes, 30 minutes, 60 minutes, 120 minutes, and 240 minutes after the injection. The separated sera were used for the measurement of the blood level of the test compounds. The concentrations of the test compounds in the sera were determined by a thin-layer cup method using Micrococcus luteus ATCC 9341 as an assay microorganism.

For a further data set, the system named is Escherichia coli (NIHJ). In words: MIC, agar plate dilution (Referential Example 1, Table 1). The data set is classed as cell-based. The conditions noted are these: 18 h, read-out: Minimum growth inhibitory concentration (MIC). The procedure:
The antibacterial activities of the cephalosporins of this invention were measured using the sodium salts of the compounds obtained in Synthesis Examples 1 and 2. The procedure and the results are shown in Referential Example 1.
Carbenicillin sodium salt (CB-PC) and cephazoline sodum salt (CEZ) were used as controls.
The antibacterial activities of the test compounds against various Gram-positive and Gram-negative bacteria were determined in a customary manner by the minimum growth inhibitory concentration method (MIC method).
The experimental procedure was as follows:
A commercially available heart infusion agar medium (to be abbreviated HIA medium) was used as an assay medium, and a commercially available trypto-soy bouillon medium (to be abbreviated TSB) was used as a medium for the growth of test bacterial strains.
The test compound was diluted with the melted HIA medium to 100 μg/ml as a maximum concentration, and then serially diluted double. The dilutions were poured into sterilized Petri dishes respectively and allowed to cool and solidify to prepare plates containing the test compound.
The test bacterial strain was cultivated at 37° C. for 18 to 24 hours in the TSB medium. The culture broth was diluted to 50 to 500 times with a freshly prepared TSB culture medium, and one platinum loopful of the dilution was inoculated in each of the plates containing the test compound.

Converted amounts (≈) assume the structure as drawn.

Broadly, the LD50 is the dose at which mortality reaches 50%. `Cc1nnc(SCC2=C(C(=O)O)N3C(=O)C(NC(=O)[C@H](NC(=O)c4cnc5c(c4O)C(=O)CCC5)c4ccc(O)cc4)C3SC2)s1` (single isomer, unassigned) [Synthesis Example 2]: in data set [1], the LD50 at 336 h was ≥ 1000 mg/kg. In data set [2], the concentration at 0.25 h is 22800 ± 2600 ng/mL, the concentration at 0.5 h stood at 16100 ± 3000 ng/mL, the concentration at 1 h is 7600 ± 1800 ng/mL and the concentration at 2 h amounted to 2500 ± 1200 ng/mL. In addition, the MIC in the data set on Escherichia coli (NIHJ) was found to be 0.78 µg/mL (≈ 1.14 µM).
Regarding `CC(=O)OCC1=C(C(=O)O)N2C(=O)C(NC(=O)[C@H](NC(=O)c3cnc4c(c3O)C(=O)CCC4)c3ccc(O)cc3)C2SC1` (single isomer, unassigned) [Synthesis Example 1, 7-[D-(-)-α-(4-hydroxy-5-oxo-5,6,7,8-tetrahydroquinoline-3-carboxamide)-α-(4-hydroxyphenyl)acetamido]-3-acetoxymethyl-Δ^3-cephem-4-carboxylic acid], the median lethal dose (LD50) at 336 h in data set [1] is ≥ 1000 mg/kg. In data set [2], the concentration at 0.25 h turned out to be 14000 ± 2200 ng/mL, the concentration at 0.5 h came to 9800 ± 3100 ng/mL, the concentration at 1 h amounted to 6800 ± 2200 ng/mL and the concentration at 2 h came out at 2200 ± 1000 ng/mL. In addition, in the data set with Escherichia coli (NIHJ), the MIC came out at 1.56 µg/mL (≈ 2.55 µM).

(Values after patent US4296112A, “Cephalosporins” (Mitsui Toatsu Chemicals, Inc., priority 1979, dated 1981).)
